Source: patent US20100143980A1, “SYNTHESIS OF NOVEL XYLOSIDES AND POTENTIAL USES THEREOF” (priority 2007, published 2010)
“Also recorded” adds a separate entry of the source.

Experiments:
CHO pgsA-745 [1] = experiment: Priming of glycosaminoglycan synthesis by xylosides, 35S-sulfate incorporation into purified HS/CS; assay type: cell-based; conditions: for GAG priming ability (in words, relative to the comparator named): CHO pgsA-745 cells, concentration not given; for GAG priming activity at 10 uM (in words): 10 uM primer
Description: To determine whether the xylosides are able to prime the synthesis of glycosaminoglycans in cells in vitro experiments were performed using CHO pgsA-745. The cells were treated with appropriate primers in the presence of 35S—Na2SO4, glycosaminoglycans were purified and analyzed as described below. 1×10^4 cells were plated per well in Ham's/F12 complete growth medium in a 24-well plate. The cells were incubated at 37° C. in a humidified incubator for 24 hours to a confluency of about 50%. The cells were washed with sterile PBS and replaced with 450 μL ham's/F12 containing 10% dialyzed FBS. Solutions containing a specific primer at 100× the final concentration were prepared. 5 μL of appropriate 100× primer were added to various wells to yield a final concentration of 100 μM. 50 μCi of 35S—Na2SO4 was also added to each well as tracer. The 24-well plates were placed back in the 37° C. incubator for 24 hours before the addition of 100 μL 6× pronase solution followed by incubation at 37° C. overnight.
(§1) To determine whether the xylosides are able to prime the synthesis of glycosaminoglycans in cells, in vitro experiments were performed using CHO pgsA-745. The cells were treated with appropriate primers in the presence of 35S—Na2SO4, glycosaminoglycans were purified and analyzed as described below. 1×10^4 cells were plated per well in Ham's/F12 complete growth medium in a 24-well plate. The cells were incubated at 37° C. in a humidified incubator for 24 hours to a confluency of about 50%. The cells were washed with sterile PBS and replaced with 450 uL ham's/F12 containing 10% dialyzed FBS. Serial dilutions of the primers at 100× the final concentration were prepared. 5 uL of appropriate 100× primer were added to various wells to yield a final concentration of 1, 10, 100 and 1000 uM respectively. 50 uCi of 35S—Na2SO4 was also added to each well as tracer. The 24-well plates were placed back in the 37° C. incubator for 24 hours before the addition of 100 uL 6× pronase solution followed by incubation at 37° C. overnight.
The entire contents of the wells were transferred to a microcentrifuge tube and subjected to centrifugation at 16,000×g for 5 minutes. The supernatant was transferred to a fresh tube and half-a-volume of 0.016% Triton X-100 was added. The diluted supernant was loaded on 0.2 mL DEAE-sepharose column pre-equilibrated with 2 mL of 20 mM NaOAc buffer pH 6.0 containing 0.1 M NaCl and 0.01% Triton X-100 and the column was washed with 4 mL of buffer described above. The bound HS/CS was eluted using 1.2 mL elution buffer, 20 mM NaOAc, pH 6.0, containing 1 M NaCl. The extent of priming by the various xyloside primers was evaluated by quantifying the 35S-radioactivity incorporated in to the purified HS/CS elute by liquid scintillation. 50 uL of the various elutes were added to 5 mL of scintillation cocktail and the vials were counted in a scintillation counter in triplicate. The amount of radioactivity corresponds to the total glycosaminoglycan synthesis due to the primer.
as §1, with “a) To” for “To”, “cells” for “cells,”, “^35S—Na2SO4,” for “35S—Na2SO4,”, “37 C” for “37° C.”, “^35S—Na2SO4” for “35S—Na2SO4”, “The 24-well plates were placed back in the 37° C. incubator for 24 hours before the addition of 100 uL 6× pronase solution followed by incubation at 37° C. overnight.” left out

CHO pgsA-745 [2] = experiment: Composition of HS and CS in the primed glycosaminoglycans (Chondroitinase AC digestion); assay type: cell-based; conditions: share of HS in total GAG
Description: (§2) To determine the composition of the HS and CS in the glycosaminoglycans synthesized, a small aliquot of the elute (300 uL) was diluted 10-fold and digested using Chondroitinase AC. The sample was subjected to precipitation to remove the disaccharide in the presence of cold chondroitin sulfate A and scintillation counted. This gives the amount of HS primed on the xylosides and the difference in the radioactivity corresponds to the amount of chondroitin sulfate in the purified glycoaminoglycan elute.
as §2, with “b) To” for “To”

Compound	GAG priming ability (in words, relative to the comparator named) (CHO pgsA-745 [1])	other results
OC1COC(n2ccnn2)C(O)C1O (stereo not shown) [compound 1]	primed slightly better than the well known β-O-naphthyl xyloside	–
OC1COC(n2ccnn2)C(O)C1O (stereo not shown) [compound 2]	prime GAGs albeit in lesser quantities than their respective β-anomers	–
OC1COC(n2cc(COc3cccnc3)nn2)C(O)C1O (stereo not shown) [compound 5]	–	priming efficiency compared to phenyl substituted xyloside compound 7 (CHO pgsA-745 [1]; fold less efficient than compound 7): 10 times
OC1COC(n2cc(COc3cccnc3)nn2)C(O)C1O (stereo not shown) [compound 6]	prime GAGs albeit in lesser quantities than their respective β-anomers	–
OC1COC(n2cc(COc3ccccc3)nn2)C(O)C1O (stereo not shown) [compound 8]	prime GAGs albeit in lesser quantities than their respective β-anomers	–
COc1ccc(OCc2cn(C3OCC(O)C(O)C3O)nn2)cc1 (stereo not shown) [compound 9]	marginal effect on the priming ability	–
COc1ccc(OCc2cn(C3OCC(O)C(O)C3O)nn2)cc1 (stereo not shown) [compound 10]	prime GAGs albeit in lesser quantities than their respective β-anomers	–
O=[N+]([O-])c1ccc(OCc2cn(C3OCC(O)C(O)C3O)nn2)cc1 (stereo not shown) [compound 15]	–	loss of priming activity by para nitro substitution (CHO pgsA-745 [1]; relative to unsubstituted phenyl xyloside): approximately 30%
OC1COC(n2cc(COc3ccc(-c4ccc(Br)cc4)cc3)nn2)C(O)C1O (stereo not shown) [compound 17]	decreased	–
OC1COC(n2cc(COc3ccc4cc(Br)ccc4c3)nn2)C(O)C1O (stereo not shown) [compound 19]	completely abolished the priming activity	–
OC1COC(n2cc(COc3ccc4c(c3)CCCC4)nn2)C(O)C1O (stereo not shown) [compound 20]	did not significantly influence priming activity	–
OC1COC(n2cc(COc3cc4ccccc4c4ccccc34)nn2)C(O)C1O (stereo not shown) [compound 21]	primed less GAG chains than the less hydrophobic xyloside (Table 1A: compound 18) did	–
OC1COC(n2cc(COCc3ccccc3)nn2)C(O)C1O (stereo not shown) [compound 23]	prime GAGs albeit in lesser quantities than their respective β-anomers	–
OC1COC(n2cc(COCc3ccc(F)cc3)nn2)C(O)C1O (stereo not shown) [compound 24]	down regulates the priming ability	–
OCc1cccc(COCc2cn(C3OCC(O)C(O)C3O)nn2)c1 (stereo not shown) [compound 25]	down regulates the priming ability	–
OC1COC(n2cc(-c3ccccc3)nn2)C(O)C1O (stereo not shown) [compound 29]	decreased the priming ability by two fold	–
COc1ccccc1-c1cn(C2OCC(O)C(O)C2O)nn1 (stereo not shown) [compound 32]	primed nearly two times the amount of GAG chains compared to the unsubstituted xyloside 29	–
COc1ccc(-c2cn(C3OCC(O)C(O)C3O)nn2)cc1 (stereo not shown) [compound 33]	primed one-half the amount of GAG chains compared to the unsubstituted xyloside 29	–
COc1cc(OC)cc(-c2cn(C3OCC(O)C(O)C3O)nn2)c1 (stereo not shown) [compound 34]	showed decrease priming compared to the unsubstituted xyloside 29	–
OC1COC(n2cc(COc3ccc(F)cc3)nn2)C(O)C1O (stereo not shown) [fluoro-substituted derivative]	–	composition of HS in primed glycosaminoglycans (in words) (CHO pgsA-745 [2]): Half
O=S(=O)(c1ccccc1)[C@@H]1OC[C@@H](O)[C@H](O)[C@H]1O [sulfone-phenyl xyloside]	–	priming ability relative to the next highest primer at 1 uM (CHO pgsA-745 [1]; 1 uM): four times that of the next highest priming activity seen at this concentration; GAG priming activity at 1 uM (in words) (CHO pgsA-745 [1]; 1 uM primer): better activity at concentration as low as 1 uM; also recorded: highest activity than any of the primers; GAG priming activity at 10 uM (in words) (CHO pgsA-745 [1]): significantly higher priming activity than other xylosides; priming activity relative to the thio-phenyl and thio-pyridyl primers (CHO pgsA-745 [1]; 100 uM): about 60%
OC1COC(n2cc(COc3ccc4c(c3)CCCC4)nn2)C(O)C1O (stereo not shown) [tetrahydronaphthyl]	–	GAG priming activity at 10 uM (in words) (CHO pgsA-745 [1]): significantly higher priming activity than other xylosides
O[C@@H]1[C@@H](O)[C@H](Sc2ccccc2)OC[C@H]1O [thiophenyl, beta-D-thiophenyl xyloside, reference compound]	–	GAG priming activity at 10 uM (in words) (CHO pgsA-745 [1]): significantly higher priming activity than other xylosides
OC1COC(n2cc(COc3ccccc3)nn2)C(O)C1O (stereo not shown) [triazole-O-phenyl]	–	composition of HS in primed glycosaminoglycans (in words) (CHO pgsA-745 [2]): Half
C-(2-naphthol)-xyloside	–	composition of HS in primed glycosaminoglycans (CHO pgsA-745 [2]): −72%
